From PubChem BioAssay AID2060613 (Molecular Pharmacology Branch, DTP, NCI, 2025)

Test system: 233499-124-R-J3-PDC complex spheroid viability
Experiment: Anticancer human tumor 233499-124-R-J3-PDC patient-derived colon adenocarcinoma cell line growth inhibition [CLK]
Details: for IC50: curve of first compound; for viability, T/C: stronger effect = lower value
Outline: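 Multi-cell-type spheroids combined patient-derived tumor cells with HUVEC endothelial cells and human mesenchymal stem cells. Paired agents were dosed in half-log steps down from about clinical Cmax, or from 10 microM where Cmax was unknown.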

[1] = second compound 0.0316 µM, first compound 0.0316 µM
[2] = second compound 0.0316 µM, first compound 0.1 µM
[3] = second compound 0.0316 µM, first compound 0.316 µM
[4] = second compound 0.0316 µM, first compound 1 µM
[5] = second compound 0.0316 µM, first compound 3.16 µM
[6] = second compound 0.0316 µM, first compound 10 µM
[7] = second compound 0.1 µM, first compound 0.0316 µM
[8] = second compound 0.1 µM, first compound 0.1 µM
[9] = second compound 0.1 µM, first compound 0.316 µM
[10] = second compound 0.1 µM, first compound 1 µM
[11] = second compound 0.1 µM, first compound 3.16 µM
[12] = second compound 0.1 µM, first compound 10 µM
[13] = second compound 0.316 µM, first compound 0.0316 µM
[14] = second compound 0.316 µM, first compound 0.1 µM
[15] = second compound 0.316 µM, first compound 0.316 µM
[16] = second compound 0.316 µM, first compound 1 µM
[17] = second compound 0.316 µM, first compound 3.16 µM
[18] = second compound 0.316 µM, first compound 10 µM
[19] = second compound 1 µM, first compound 0.0316 µM
[20] = second compound 1 µM, first compound 0.1 µM
[21] = second compound 1 µM, first compound 0.316 µM
[22] = second compound 1 µM, first compound 1 µM
[23] = second compound 1 µM, first compound 3.16 µM
[24] = second compound 1 µM, first compound 10 µM
[25] = second compound 3.16 µM, first compound 0.0316 µM
[26] = second compound 3.16 µM, first compound 0.1 µM
[27] = second compound 3.16 µM, first compound 0.316 µM
[28] = second compound 3.16 µM, first compound 1 µM
[29] = second compound 3.16 µM, first compound 3.16 µM
[30] = second compound 3.16 µM, first compound 10 µM
[31] = second compound 10 µM, first compound 0.0316 µM
[32] = second compound 10 µM, first compound 0.1 µM
[33] = second compound 10 µM, first compound 0.316 µM
[34] = second compound 10 µM, first compound 1 µM
[35] = second compound 10 µM, first compound 3.16 µM
[36] = second compound 10 µM, first compound 10 µM
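Also: spheroids exposed to the drug combinations for seven days.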
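For viability, T/C in this document: percent viability relative to DMSO vehicle control wells taken as 100%.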

COc1ccc([C@@H](O)c2cc(-c3ncnc4cc(N5CCOCC5)ccc34)c(F)cc2Cl)nn1 + CN1CCN(c2cc(C(=O)Nc3cc4cc(-c5cnn(C)c5)ccc4cn3)ccn2)CC1
IC50 (second compound 0.0316 µM): > 10000 nM
IC50 (second compound 0.1 µM): 9830 nM
IC50 (second compound 0.316 µM): 8500 nM
IC50 (second compound 1 µM): < 31.6 nM
IC50 (second compound 3.16 µM): < 31.6 nM
IC50 (second compound 10 µM): < 31.6 nM
viability, T/C [1]: 101%
viability, T/C [2]: 99.3%
viability, T/C [3]: 102%
viability, T/C [4]: 105%
viability, T/C [5]: 83%
viability, T/C [6]: 56.7%
viability, T/C [7]: 98.7%
viability, T/C [8]: 95%
viability, T/C [9]: 105%
viability, T/C [10]: 93.7%
viability, T/C [11]: 78.9%
viability, T/C [12]: 49.5%
viability, T/C [13]: 80.5%
viability, T/C [14]: 92.5%
viability, T/C [15]: 96%
viability, T/C [16]: 88.3%
viability, T/C [17]: 87.7%
viability, T/C [18]: 43.8%
viability, T/C [19]: 0.59%
viability, T/C [20]: 0.54%
viability, T/C [21]: 0.4%
viability, T/C [22]: 0.92%
viability, T/C [23]: 0.89%
viability, T/C [24]: 0.79%
viability, T/C [25]: 0.54%
viability, T/C [26]: 0.7%
viability, T/C [27]: 0.68%
viability, T/C [28]: 0.83%
viability, T/C [29]: 0.94%
viability, T/C [30]: 1.93%
viability, T/C [31]: 0.36%
viability, T/C [32]: 0.41%
viability, T/C [33]: 0.43%
viability, T/C [34]: 0.46%
viability, T/C [35]: 0.73%
viability, T/C [36]: 1.14%

COc1cccc2c1C(=O)c1c(O)c3c(c(O)c1C2=O)CC(O)(C(=O)CO)CC3OC1CC(N)C(O)C(C)O1 (stereo not drawn) + CN1CCN(c2cc(C(=O)Nc3cc4cc(-c5cnn(C)c5)ccc4cn3)ccn2)CC1
IC50 (second compound 0.0316 µM): 2550 nM
IC50 (second compound 0.1 µM): 1780 nM
IC50 (second compound 0.316 µM): 1940 nM
IC50 (second compound 1 µM): < 31.6 nM
IC50 (second compound 3.16 µM): < 31.6 nM
IC50 (second compound 10 µM): < 31.6 nM
viability, T/C [1]: 80.4%
viability, T/C [2]: 110%
viability, T/C [3]: 106%
viability, T/C [4]: 80.9%
viability, T/C [5]: 43.2%
viability, T/C [6]: 10.8%
viability, T/C [7]: 98%
viability, T/C [8]: 110%
viability, T/C [9]: 100%
viability, T/C [10]: 68.5%
viability, T/C [11]: 30.7%
viability, T/C [12]: 5.13%
viability, T/C [13]: 84.7%
viability, T/C [14]: 97.6%
viability, T/C [15]: 66.5%
viability, T/C [16]: 61.9%
viability, T/C [17]: 44.4%
viability, T/C [18]: 2.79%
viability, T/C [19]: 0.46%
viability, T/C [20]: 0.59%
viability, T/C [21]: 10.8%
viability, T/C [22]: 0.33%
viability, T/C [23]: 5.03%
viability, T/C [24]: 0.81%
viability, T/C [25]: 0.55%
viability, T/C [26]: 0.57%
viability, T/C [27]: 0.48%
viability, T/C [28]: 0.43%
viability, T/C [29]: 0.53%
viability, T/C [30]: 0.67%
viability, T/C [31]: 0.35%
viability, T/C [32]: 0.39%
viability, T/C [33]: 0.38%
viability, T/C [34]: 0.34%
viability, T/C [35]: 0.3%
viability, T/C [36]: 0.24%

CCCS(=O)(=O)Nc1ccc(F)c(C(=O)c2c[nH]c3ncc(-c4ccc(Cl)cc4)cc23)c1F + CNC(=O)c1ccc(Nc2nc(OC3CCCC3)c3c(-c4ccc5nc(C)oc5c4)c[nH]c3n2)c(OC)c1
IC50 (second compound 0.0316 µM): > 10000 nM
IC50 (second compound 0.1 µM): > 10000 nM
IC50 (second compound 0.316 µM): 8400 nM
IC50 (second compound 1 µM): 5870 nM
IC50 (second compound 3.16 µM): 5070 nM
IC50 (second compound 10 µM): 4150 nM
viability, T/C [1]: 89.6%
viability, T/C [2]: 96.5%
viability, T/C [3]: 103%
viability, T/C [4]: 102%
viability, T/C [5]: 97.9%
viability, T/C [6]: 64.9%
viability, T/C [7]: 75.7%
viability, T/C [8]: 86.8%
viability, T/C [9]: 82.2%
viability, T/C [10]: 86.8%
viability, T/C [11]: 85.5%
viability, T/C [12]: 50%
viability, T/C [13]: 75.9%
viability, T/C [14]: 87.4%
viability, T/C [15]: 90.6%
viability, T/C [16]: 90.3%
viability, T/C [17]: 90.3%
viability, T/C [18]: 43.4%
viability, T/C [19]: 90.1%
viability, T/C [20]: 90.5%
viability, T/C [21]: 78.7%
viability, T/C [22]: 85.3%
viability, T/C [23]: 91%
viability, T/C [24]: 18%
viability, T/C [25]: 76.1%
viability, T/C [26]: 90.1%
viability, T/C [27]: 84.6%
viability, T/C [28]: 83.6%
viability, T/C [29]: 76.5%
viability, T/C [30]: 11.9%
viability, T/C [31]: 76.7%
viability, T/C [32]: 78.4%
viability, T/C [33]: 79.2%
viability, T/C [34]: 81.3%
viability, T/C [35]: 60.9%
viability, T/C [36]: 14.6%

COC1C=CCC(C)C(C)S(=O)(=O)NC(=O)c2ccc3c(c2)N(CC2CCC21)CC1(CCCc2cc(Cl)ccc21)CO3 (stereo not drawn) + CNC(=O)c1ccc(Nc2nc(OC3CCCC3)c3c(-c4ccc5nc(C)oc5c4)c[nH]c3n2)c(OC)c1
IC50 (second compound 0.0316 µM): 4620 nM
IC50 (second compound 0.1 µM): 135 nM
IC50 (second compound 0.316 µM): 135 nM
IC50 (second compound 1 µM): 113 nM
IC50 (second compound 3.16 µM): 59.5 nM
IC50 (second compound 10 µM): 129 nM
viability, T/C [1]: 90.8%
viability, T/C [2]: 93.5%
viability, T/C [3]: 92.5%
viability, T/C [4]: 82.2%
viability, T/C [5]: 71.2%
viability, T/C [6]: 9.78%
viability, T/C [7]: 83.2%
viability, T/C [8]: 57.4%
viability, T/C [9]: 29.4%
viability, T/C [10]: 19%
viability, T/C [11]: 33.8%
viability, T/C [12]: 11.7%
viability, T/C [13]: 79%
viability, T/C [14]: 61%
viability, T/C [15]: 19%
viability, T/C [16]: 9.42%
viability, T/C [17]: 8.88%
viability, T/C [18]: 9.03%
viability, T/C [19]: 81.2%
viability, T/C [20]: 51.6%
viability, T/C [21]: 29.8%
viability, T/C [22]: 10.1%
viability, T/C [23]: 9.03%
viability, T/C [24]: 6.79%
viability, T/C [25]: 69.2%
viability, T/C [26]: 33.6%
viability, T/C [27]: 19.7%
viability, T/C [28]: 12.3%
viability, T/C [29]: 7%
viability, T/C [30]: 7.88%
viability, T/C [31]: 60.6%
viability, T/C [32]: 59.5%
viability, T/C [33]: 17.5%
viability, T/C [34]: 11.5%
viability, T/C [35]: 7.72%
viability, T/C [36]: 5.45%
